Experimental data as given in ChEMBL document CHEMBL1151506, “Carboxyl-promoted enhancement of selectivity for the 3 adrenergic receptor. Negative charge of the sulfonic acid BMS-187413 introduces-3 binding selectivity” (Bioorg Med Chem Lett, 1997).

How the values were obtained:
[1] = target: Beta-1 adrenergic receptor (Homo sapiens, UniProt P08588); experiment: Ability to bind to human Beta-1 adrenergic receptor using membranes of stably transfected CHO cells; assay type: cell-based
[2] = target: Beta-2 adrenergic receptor and beta-3 adrenergic receptor (Homo sapiens) (UniProt P07550+P13945); experiment: Binding selectivity ratio for beta 3 over beta 2 AR (S beta3/beta2); assay type: protein assay
[3] = target: T1, Beta-3 adrenergic receptor (Homo sapiens, UniProt P13945); experiment: Intrinsic activity as maximal cyclase activity in CHO-beta3 AR cell membranes compared to (-)-isoproterenol; assay type: functional, cell-based
Target sequence in this assay (P13945 whole entry, looked up): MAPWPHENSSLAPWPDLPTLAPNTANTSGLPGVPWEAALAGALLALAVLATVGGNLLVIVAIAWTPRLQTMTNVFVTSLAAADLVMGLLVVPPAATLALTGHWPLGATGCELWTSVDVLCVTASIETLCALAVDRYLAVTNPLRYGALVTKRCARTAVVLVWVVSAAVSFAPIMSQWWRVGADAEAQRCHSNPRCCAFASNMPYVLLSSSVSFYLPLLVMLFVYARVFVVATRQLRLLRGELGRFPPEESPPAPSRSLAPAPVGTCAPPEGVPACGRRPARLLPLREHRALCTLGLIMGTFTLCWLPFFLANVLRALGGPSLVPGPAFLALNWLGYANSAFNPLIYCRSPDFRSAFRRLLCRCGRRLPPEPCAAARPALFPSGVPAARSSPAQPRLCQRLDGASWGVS

[4] = target: Beta-2 adrenergic receptor (Homo sapiens, UniProt P07550); experiment: Ability to bind to human Beta-2 adrenergic receptor using membranes of stably transfected CHO cells; assay type: cell-based
Sequence of Beta-2 adrenergic receptor (P07550 whole entry): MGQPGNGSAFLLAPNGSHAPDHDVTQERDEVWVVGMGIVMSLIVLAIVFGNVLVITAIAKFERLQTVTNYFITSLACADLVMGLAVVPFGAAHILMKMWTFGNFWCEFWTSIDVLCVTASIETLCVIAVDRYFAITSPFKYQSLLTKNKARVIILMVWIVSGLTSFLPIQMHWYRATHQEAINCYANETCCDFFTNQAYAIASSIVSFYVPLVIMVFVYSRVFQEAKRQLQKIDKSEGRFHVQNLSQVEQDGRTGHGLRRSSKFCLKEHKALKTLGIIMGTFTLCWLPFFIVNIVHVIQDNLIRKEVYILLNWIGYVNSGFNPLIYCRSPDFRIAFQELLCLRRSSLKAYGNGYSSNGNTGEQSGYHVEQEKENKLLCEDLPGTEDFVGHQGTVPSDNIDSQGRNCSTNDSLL

[5] = target: Adrenergic receptor beta; ADRB1 & ADRB3 (Homo sapiens) (UniProt P08588+P13945); experiment: Binding selectivity ratio for beta 3 over beta 1 AR (S beta3/beta1); assay type: protein assay
Sequence of Adrenergic receptor beta; ADRB1 & ADRB3 (Homo sapiens) (P08588 whole entry, looked up): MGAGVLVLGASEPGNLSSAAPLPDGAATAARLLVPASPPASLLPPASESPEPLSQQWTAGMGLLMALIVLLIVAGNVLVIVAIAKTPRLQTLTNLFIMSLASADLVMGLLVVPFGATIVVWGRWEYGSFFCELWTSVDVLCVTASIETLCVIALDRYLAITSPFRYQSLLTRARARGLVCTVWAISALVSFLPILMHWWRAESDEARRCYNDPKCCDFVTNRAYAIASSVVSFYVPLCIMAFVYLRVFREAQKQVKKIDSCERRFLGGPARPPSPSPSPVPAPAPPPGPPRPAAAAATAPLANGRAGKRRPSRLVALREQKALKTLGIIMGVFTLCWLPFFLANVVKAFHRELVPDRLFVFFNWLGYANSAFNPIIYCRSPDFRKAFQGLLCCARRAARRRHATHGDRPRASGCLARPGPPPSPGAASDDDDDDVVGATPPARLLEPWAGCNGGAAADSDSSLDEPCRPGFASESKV
Sequence of Adrenergic receptor beta; ADRB1 & ADRB3 (Homo sapiens) (P13945 whole entry, looked up): as the sequence (P13945 whole entry, looked up) above

[6] = target: T1, Beta-3 adrenergic receptor; experiment: Effective concentration for stimulation of adenylyl cyclase activity in CHO-beta3 AR expressing cell membranes; assay type: functional
Target sequence in this assay (P13945 whole entry): as the sequence (P13945 whole entry, looked up) above

[7] = target: T1, Beta-3 adrenergic receptor; experiment: Ability to bind to human Beta-3 adrenergic receptor using membranes of stably transfected CHO cells; assay type: cell-based
Target sequence in this assay (P13945 whole entry): as the sequence (P13945 whole entry, looked up) above

Sequence of Beta-1 adrenergic receptor (P08588 whole entry): as the sequence (P08588 whole entry, looked up) above

Row | SMILES | Ki [1] [nM] | Selectivity [2] | Activity [3] | Ki [4] [nM] | Selectivity [5] | EC50 [6] [nM] | Ki [7] [nM]
1 | COC(=O)COc1ccc(C[C@@H](C)NC[C@H](O)c2cccc(Cl)c2)cc1 | 170 | 0.0028 | 0.69 | 3.2 | 0.15 | 420 | 1150
2 | C[C@H](Cc1ccc(OCC(N)=O)cc1)NC[C@H](O)c1cccc(Cl)c1 | 590 | 0.046 | 0.6 | 170 | 0.16 | 1610 | 3700
3 | C[C@H](Cc1ccc(OCP(=O)(O)O)cc1)NC[C@H](O)c1cccc(Cl)c1 | > 100000 | 0.72 | 0.53 | 39700 | > 1.8 | 2640 | 55300
4 | C[C@H](Cc1ccc(OCC(=O)O)cc1)NC[C@H](O)c1cccc(Cl)c1 | – | – | 0.67 | – | – | – | –
5 | C[C@H](Cc1ccc(OCP(C)(=O)O)cc1)NC[C@H](O)c1cccc(Cl)c1 | 140000 | 3.7 | – | 73700 | 7 | – | 19900
6 | C[C@H](Cc1ccc(OCC(=O)NO)cc1)NC[C@H](O)c1cccc(Cl)c1 | 310 | 0.057 | 0.66 | 112 | 0.16 | 1610 | 1960
7 | C[C@H](Cc1ccc(OCS(=O)(=O)O)cc1)NC[C@H](O)c1cccc(Cl)c1 | 7600 | 2.8 | 0.57 | 2250 | 9.4 | 60 | 806
8 | CC(C)OP(=O)(O)COc1ccc(C[C@@H](C)NC[C@H](O)c2cccc(Cl)c2)cc1 | 139000 | 2.3 | 0.59 | 42600 | 7.4 | 610 | 18800
9 | C[C@H](Cc1ccc(OC(C(=O)O)C(=O)O)cc1)NC[C@H](O)c1cccc(Cl)c1 | 243000 | 1.5 | – | 17100 | 22 | – | 11100
10 | C[C@H](Cc1ccc(OCCO)cc1)NC[C@H](O)c1cccc(Cl)c1 | 1250 | 0.12 | 0.77 | 260 | 0.58 | 750 | 2140
